Marks after values point to notes of the source that are not given here.
Tested on: MCF7 cells
Assay: Immuno-staining of protein expression and protein phosphorylation, MCF7 cells
Format: cell-based
Parameters: ATM level / P-AMPKa level / P-317 (ULK1) level / ATG5 level / HDAC8 level / BIM level: scale not given here
Protocol: ZR75-1 and MCF7 cells were treated with vehicle control, GZ17-6.02, Palbociclib or the drugs combined for 3 hours and for 6 hours. Cells were fixed in place and immuno-staining performed with in house validated antibodies to detect protein expression and protein phosphorylation.

Compound: CC(=O)c1c(C)c2cnc(Nc3ccc(N4CCNCC4)cn3)nc2n(C2CCCC2)c1=O [PALBO, Palbociclib]
- AKT level (MCF7, 3 h): 100
- AMPKa level (MCF7, 3 h): 102
- ATG5 level (MCF7, 3 h): 107
- ATG13 level (MCF7, 3 h): 100
- ATM level (MCF7, 3 h): 100
- BAK level (MCF7, 3 h): 95
- BAX level (MCF7, 3 h): 103
- BCL-XL level (MCF7, 3 h): 99
- BIM level (MCF7, 3 h): 109
- Beclin1 level (MCF7, 3 h): 113#
- CD95 level (MCF7, 3 h): 101
- CHOP level (MCF7, 3 h): 112
- Cyclin D level (MCF7, 3 h): 104
- Cyclin E level (MCF7, 3 h): 104
- ER level (MCF7, 3 h): 99
- ERBB1 level (MCF7, 3 h): 99
- ERBB2 level (MCF7, 3 h): 100
- ERBB3 level (MCF7, 3 h): 101
- ERK1/2 level (MCF7, 3 h): 100
- ERK2 level (MCF7, 3 h): 100
- ERRB4 level (MCF7, 3 h): 99
- FAS-L level (MCF7, 3 h): 108
- GRP78 level (MCF7, 3 h): 114#
- HDAC1 level (MCF7, 3 h): 100
- HDAC2 level (MCF7, 3 h): 94
- HDAC3 level (MCF7, 3 h): 97
- HDAC4 level (MCF7, 3 h): 99
- HDAC5 level (MCF7, 3 h): 99
- HDAC6 level (MCF7, 3 h): 100
- HDAC7 level (MCF7, 3 h): 100
- HDAC8 level (MCF7, 3 h): 100
- HDAC9 level (MCF7, 3 h): 99
- HDAC10 level (MCF7, 3 h): 99
- HDAC11 level (MCF7, 3 h): 100
- IDO1 level (MCF7, 3 h): 97
- JAK2 level (MCF7, 3 h): 99
- JNK1/2 level (MCF7, 3 h): 100
- LATS1/2 level (MCF7, 3 h): 100
- MCL1 level (MCF7, 3 h): 95
- MHCA level (MCF7, 3 h): 102
- NEDD4 level (MCF7, 3 h): 96
- NFkB level (MCF7, 3 h): 101
- ODC level (MCF7, 3 h): 103
- P-89 (TAZ) level (MCF7, 3 h): 105
- P-109 (YAP) level (MCF7, 3 h): 106
- P-127 (YAP) level (MCF7, 3 h): 102
- P-317 (ULK1) level (MCF7, 3 h): 109
- P-397 (YAP) level (MCF7, 3 h): 96
- P-757 (ULK1) level (MCF7, 3 h): 98
- P-909 (LATS1/2) level (MCF7, 3 h): 99
- P-1079 (LATS1/2) level (MCF7, 3 h): 109
- P-AMPKa level (MCF7, 3 h): 112
- P-ATG13 level (MCF7, 3 h): 116#
- P-ATM level (MCF7, 3 h): 105
- P-ERBB1 level (MCF7, 3 h): 100
- P-ERBB2 level (MCF7, 3 h): 99
- P-ERBB3 level (MCF7, 3 h): 111
- P-ERBB4 level (MCF7, 3 h): 102
- P-ERK level (MCF7, 3 h): 101
- P-JAK2 level (MCF7, 3 h): 101
- P-JNK level (MCF7, 3 h): 89
- P-KIT level (MCF7, 3 h): 100
- P-MET level (MCF7, 3 h): 100
- P-NFkB level (MCF7, 3 h): 100
- P-PDGFRb level (MCF7, 3 h): 103
- P-PERK level (MCF7, 3 h): 109
- P-S2448 (mTOR) level (MCF7, 3 h): 98
- P-S2481 (mTOR) level (MCF7, 3 h): 98
- P-T308 (AKT) level (MCF7, 3 h): 96
- P-Y694 (STAT5) level (MCF7, 3 h): 98
- P-Y705 (STAT3) level (MCF7, 3 h): 98
- P-eIF2a level (MCF7, 3 h): 107
- P-p38 level (MCF7, 3 h): 97
- P-p70 T389 level (MCF7, 3 h): 105
- PD-L1 level (MCF7, 3 h): 100
- PD-L2 level (MCF7, 3 h): 100
- PDGFRb level (MCF7, 3 h): 100
- PERK level (MCF7, 3 h): 101
- PP1 level (MCF7, 3 h): 98
- PTEN level (MCF7, 3 h): 103
- STAT3 level (MCF7, 3 h): 100
- STAT5 level (MCF7, 3 h): 100
- TAZ level (MCF7, 3 h): 101
- ULK1 level (MCF7, 3 h): 100
- Y416 (c-SRC) level (MCF7, 3 h): 100
- Y527 (c-SRC) level (MCF7, 3 h): 98
- YAP level (MCF7, 3 h): 99
- c-KIT level (MCF7, 3 h): 100
- c-MET level (MCF7, 3 h): 91
- c-SRC level (MCF7, 3 h): 100
- eIF2a level (MCF7, 3 h): 99
- mTOR level (MCF7, 3 h): 100
- p38 level (MCF7, 3 h): 101
- p70 S6K level (MCF7, 3 h): 99
- AKT level (MCF7, 6 h): 100
- AMPKa level (MCF7, 6 h): 100
- ATG5 level (MCF7, 6 h): 114#
- ATG13 level (MCF7, 6 h): 101
- ATM level (MCF7, 6 h): 99
- BAK level (MCF7, 6 h): 109
- BAX level (MCF7, 6 h): 95
- BCL-XL level (MCF7, 6 h): 94
- BIM level (MCF7, 6 h): 113#
- Beclin1 level (MCF7, 6 h): 117#
- CD95 level (MCF7, 6 h): 100
- CHOP level (MCF7, 6 h): 116#
- Cyclin D level (MCF7, 6 h): 108
- Cyclin E level (MCF7, 6 h): 104
- ER level (MCF7, 6 h): 91
- ERBB1 level (MCF7, 6 h): 101
- ERBB2 level (MCF7, 6 h): 100
- ERBB3 level (MCF7, 6 h): 100
- ERK1/2 level (MCF7, 6 h): 100
- ERK2 level (MCF7, 6 h): 100
- ERRB4 level (MCF7, 6 h): 100
- FAS-L level (MCF7, 6 h): 111
- GRP78 level (MCF7, 6 h): 115#
- HDAC1 level (MCF7, 6 h): 99
- HDAC2 level (MCF7, 6 h): 95
- HDAC3 level (MCF7, 6 h): 101
- HDAC4 level (MCF7, 6 h): 102
- HDAC5 level (MCF7, 6 h): 98
- HDAC6 level (MCF7, 6 h): 101
- HDAC7 level (MCF7, 6 h): 101
- HDAC8 level (MCF7, 6 h): 101
- HDAC9 level (MCF7, 6 h): 100
- HDAC10 level (MCF7, 6 h): 99
- HDAC11 level (MCF7, 6 h): 99
- IDO1 level (MCF7, 6 h): 96
- JAK2 level (MCF7, 6 h): 100
- JNK1/2 level (MCF7, 6 h): 100
- LATS1/2 level (MCF7, 6 h): 100
- MCL1 level (MCF7, 6 h): 91
- MHCA level (MCF7, 6 h): 103
- NEDD4 level (MCF7, 6 h): 97
- NFkB level (MCF7, 6 h): 100
- ODC level (MCF7, 6 h): 101
- P-89 (TAZ) level (MCF7, 6 h): 103
- P-109 (YAP) level (MCF7, 6 h): 104
- P-127 (YAP) level (MCF7, 6 h): 104
- P-317 (ULK1) level (MCF7, 6 h): 113#
- P-397 (YAP) level (MCF7, 6 h): 99
- P-757 (ULK1) level (MCF7, 6 h): 98
- P-909 (LATS1/2) level (MCF7, 6 h): 99
- P-1079 (LATS1/2) level (MCF7, 6 h): 112
- P-AMPKa level (MCF7, 6 h): 117#
- P-ATG13 level (MCF7, 6 h): 118#
- P-ATM level (MCF7, 6 h): 109
- P-ERBB1 level (MCF7, 6 h): 100
- P-ERBB2 level (MCF7, 6 h): 100
- P-ERBB3 level (MCF7, 6 h): 114#
- P-ERBB4 level (MCF7, 6 h): 106
- P-ERK level (MCF7, 6 h): 99
- P-JAK2 level (MCF7, 6 h): 100
- P-JNK level (MCF7, 6 h): 90
- P-KIT level (MCF7, 6 h): 100
- P-MET level (MCF7, 6 h): 96
- P-NFkB level (MCF7, 6 h): 99
- P-PDGFRb level (MCF7, 6 h): 105
- P-PERK level (MCF7, 6 h): 103
- P-S2448 (mTOR) level (MCF7, 6 h): 98
- P-S2481 (mTOR) level (MCF7, 6 h): 96
- P-T308 (AKT) level (MCF7, 6 h): 107
- P-Y694 (STAT5) level (MCF7, 6 h): 98
- P-Y705 (STAT3) level (MCF7, 6 h): 98
- P-eIF2a level (MCF7, 6 h): 110
- P-p38 level (MCF7, 6 h): 100
- P-p70 T389 level (MCF7, 6 h): 110
- PD-L1 level (MCF7, 6 h): 98
- PD-L2 level (MCF7, 6 h): 98
- PDGFRb level (MCF7, 6 h): 99
- PERK level (MCF7, 6 h): 101
- PP1 level (MCF7, 6 h): 99
- PTEN level (MCF7, 6 h): 103
- STAT3 level (MCF7, 6 h): 100
- STAT5 level (MCF7, 6 h): 100
- TAZ level (MCF7, 6 h): 100
- ULK1 level (MCF7, 6 h): 100
- Y416 (c-SRC) level (MCF7, 6 h): 101
- Y527 (c-SRC) level (MCF7, 6 h): 103
- YAP level (MCF7, 6 h): 99
- c-KIT level (MCF7, 6 h): 102
- c-MET level (MCF7, 6 h): 99
- c-SRC level (MCF7, 6 h): 101
- eIF2a level (MCF7, 6 h): 100
- mTOR level (MCF7, 6 h): 100
- p38 level (MCF7, 6 h): 103
- p70 S6K level (MCF7, 6 h): 100
- P-ERBB3 level (MCF7, 6 h, listed as Palbo): 114
